According to US12661355B2, “Compounds and methods for inducing UCP1 expression” (The Regents of the University of California, priority 2020, dated 2026):

Assays:
[1] = molecular target: T1, AKAP1 and the PKA subunits (Mus musculus, UniProt O08715); test: Co-immunoprecipitation of PKA C-α and PKA RII-β with AKAP1; assay type: cell-based; conditions: brown adipocytes, 10 μM for 7 h
T1 construct: Immortalized brown adipocyte cells were differentiated for 10 days and treated with 10 μM AST070 or Z160 for 7 h; endogenous in cells; host or cells: immortalized mouse brown adipocytes
Method: Immortalized brown adipocyte cells were differentiated for 10 days and treated with 10 μM AST070 or Z160 for 7 h. Cells were lysed in 150 mM NaCl, 50 mM Tris pH 7.5, 1% Nonidet P40, 0.5% Na-deoxycholate containing protease and phosphatase inhibitors. Cell lysates were incubated overnight at 4° C. with 2 μl of anti-AKAP1 antibody. Twenty microliter of Protein A/G PLUS agarose beads (Santa Cruz Biotechnologies) were added for 2 h at 4° C. After a initial wash (500 mM NaCl, 50 mM Tris pH 7.5, 0.1% Nonidet P40, 0.05% Na-deoxycholate) and a final wash (10 mM Tris pH 7.5, 0.1% Nonidet P40, 0.05% Na-deoxycholate), proteins were eluted from the beads with 1× loading buffer and 2% β-mercaptoethanol, boiled for 10 min and analyzed by Western blot. To avoid detecting the IgG heavy chain, TidyBlot Western Blot reagent:HRP (Bio-Rad) at 1:100 was used as secondary antibody to reveal the PKA subunits from the co-immunoprecipitation blot.
AKAP1 is known to localize PKA to the surface of mitochondria and to relay cAMP signaling for mitochondrial functions. Inspired by this information, an inquiry as to whether treatment with the reported compounds could alter the binding of AKAP1 to mitochondria was undertaken. Analysis began by treating brown adipocytes with Z160 and isolated mitochondria at different times. […]

AKAP1 = molecular target: T2, AKAP1 (Mus musculus, UniProt O08715); test: Drug Affinity Responsive Target Stability (DARTS) in BAT or brown adipocyte extracts, AKAP1; assay type: binding; conditions: 1 h; for effect on AKAP1 (pronase susceptibility): mouse brown adipocyte extracts, 20 μM (CL316,243 20 nM)
T2 construct: from tissue; host or cells: mouse brown adipose tissue (BAT) lysate; also mouse brown adipocyte extracts
T2 sequence (O08715 30-857): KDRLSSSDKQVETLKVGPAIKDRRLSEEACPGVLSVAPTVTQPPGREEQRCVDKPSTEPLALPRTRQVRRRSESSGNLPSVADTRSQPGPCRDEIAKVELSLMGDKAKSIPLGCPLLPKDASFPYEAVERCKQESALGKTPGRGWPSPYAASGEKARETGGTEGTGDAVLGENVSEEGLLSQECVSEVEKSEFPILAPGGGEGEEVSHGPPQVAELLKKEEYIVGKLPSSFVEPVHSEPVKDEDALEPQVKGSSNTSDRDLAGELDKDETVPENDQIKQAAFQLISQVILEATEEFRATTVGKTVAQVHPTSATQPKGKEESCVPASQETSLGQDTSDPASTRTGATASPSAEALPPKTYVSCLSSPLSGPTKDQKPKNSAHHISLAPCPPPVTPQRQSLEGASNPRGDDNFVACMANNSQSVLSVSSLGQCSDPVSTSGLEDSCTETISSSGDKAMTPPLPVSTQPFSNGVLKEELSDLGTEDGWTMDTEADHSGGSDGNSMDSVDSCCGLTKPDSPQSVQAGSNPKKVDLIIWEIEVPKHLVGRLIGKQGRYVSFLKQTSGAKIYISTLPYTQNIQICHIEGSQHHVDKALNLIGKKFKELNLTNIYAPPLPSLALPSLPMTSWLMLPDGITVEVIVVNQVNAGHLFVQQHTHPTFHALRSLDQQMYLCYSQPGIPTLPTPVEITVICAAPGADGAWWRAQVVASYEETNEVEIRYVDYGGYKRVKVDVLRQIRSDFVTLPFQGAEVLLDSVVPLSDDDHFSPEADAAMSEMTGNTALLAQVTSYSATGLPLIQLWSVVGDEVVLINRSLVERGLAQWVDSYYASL
Method: […] assays were performed according to known methods. Briefly, BAT or cells within a 10 cm dish were lysed with 600 μl M-PER buffer containing protease and phosphatase inhibitors. Debris was pelleted by centrifugation at 18,000 g for 10 min at 4° C., and the lysates were harvested and supplemented with TNC buffer (50 mM Tris-HCl, 50 mM NaCl, 10 mM CaCl2). The lysates were split into two tubes and treated with either vehicle or 20 μM Z160 for 1 h at room temperature. For experiment with BAT, 100 μg of lysate was incubated with different Z160 concentrations. Different concentrations of pronase (from 1:100 to 1:10,000 dilution from a 1.25 mg/ml pronase stock) were incubated with the samples for 30 min at room temperature and the reaction was stopped with SDS loading buffer followed immediately by heating at 70° C. for 10 min. Protein lysates were separated by SDS-PAGE and transferred to a nitrocellulose membrane. After blocking in 5% milk, 0.1% Tween-20 in Tris-buffered saline (TBS), primary antibody was incubated overnight at 4° C. in 5% bovine serum albumin and 0.1% Tween-20 in TBS. Primary antibodies against AKAP1 (5203, Cell Signaling), AKAP13 (39715, One World Lab), GAPDH (GTX100118, Genetex), OPA1 (39557, One World Lab), PKA C-α (4782, Cell Signaling), PKA RII-β (ab75993, Abcam), were used at 1:2000. A goat anti-rabbit secondary antibody (sc-2030, Santa Cruz Biotechnology, Inc) was used at a 1:10,000 dilution for 1 h at room temperature in 5% milk and 0.1% Tween-20 in TBS.
The PKA tetramer consists of two catalytic and two regulatory subunits. In the mouse, these are catalytic subunits C-α and C-β, and regulatory subunits RI and RII, each with α and β isoforms (RI-α, RI-β, RII-α, RII-β). PKA is also bound to a family of anchoring proteins, A-kinase anchoring proteins (AKAPs), which allow the compartmentalization of cAMP signaling. To investigate whether Z160 binds PKA complex proteins, two techniques were applied both of which rely on ligand-induced alterations in protein stability: Cellular Thermal Shift Assay (CETSA) and Drug Affinity Responsive Target Stability (DARTS). CETSA is based on the principle that ligand binding will change the temperature at which a protein starts to unfold and aggregate, while DARTS relies on the protection of a protein from proteolysis upon specific binding to a small molecule.
To provide further evidence for an interaction between Z160 and AKAP1, DARTS assays were employed. Lysates from brown fat were treated with different Z160 concentrations for 1 h followed by pronase digestion and immunoblotting. […] The effect of Z160 on AKAP1 was confirmed using mouse brown adipocyte extracts (FIG. 15A).

Compound | signal for PKA subunit precipitation by AKAP1 [1] | effect on AKAP1 (pronase susceptibility) (AKAP1) | pronase susceptibility of AKAP1 (AKAP1; brown fat lysates, pronase 1:4000)
O=C(CSc1nc2ccccc2c(=O)[nH]1)Nc1ccc2c(c1)OCCO2 [AST070, N-(2,3-dihydro-1,4-benzodioxin-6-yl)-2-[(4-oxo-3,4-dihydroquinazolin-2-yl)sulfanyl]acetamide] | slightly enhanced | effect of AST070 or Z160 on AKAP1 | 
COc1ccc(NC(=O)CSc2nc3ccccc3c(=O)[nH]2)c(OC)c1 [Z160] | slightly enhanced | confirmed | altered pronase susceptibility
